# According to paper PMC4961458 (eLife, 2016):
# Columns and labels:
# [1] = target: T1, GR (Homo sapiens, UniProt P04150); assay: GR transcriptional reporter assay, antagonist mode (CV1 cells); type: cell-based
# T1 sequence (P04150 1-777): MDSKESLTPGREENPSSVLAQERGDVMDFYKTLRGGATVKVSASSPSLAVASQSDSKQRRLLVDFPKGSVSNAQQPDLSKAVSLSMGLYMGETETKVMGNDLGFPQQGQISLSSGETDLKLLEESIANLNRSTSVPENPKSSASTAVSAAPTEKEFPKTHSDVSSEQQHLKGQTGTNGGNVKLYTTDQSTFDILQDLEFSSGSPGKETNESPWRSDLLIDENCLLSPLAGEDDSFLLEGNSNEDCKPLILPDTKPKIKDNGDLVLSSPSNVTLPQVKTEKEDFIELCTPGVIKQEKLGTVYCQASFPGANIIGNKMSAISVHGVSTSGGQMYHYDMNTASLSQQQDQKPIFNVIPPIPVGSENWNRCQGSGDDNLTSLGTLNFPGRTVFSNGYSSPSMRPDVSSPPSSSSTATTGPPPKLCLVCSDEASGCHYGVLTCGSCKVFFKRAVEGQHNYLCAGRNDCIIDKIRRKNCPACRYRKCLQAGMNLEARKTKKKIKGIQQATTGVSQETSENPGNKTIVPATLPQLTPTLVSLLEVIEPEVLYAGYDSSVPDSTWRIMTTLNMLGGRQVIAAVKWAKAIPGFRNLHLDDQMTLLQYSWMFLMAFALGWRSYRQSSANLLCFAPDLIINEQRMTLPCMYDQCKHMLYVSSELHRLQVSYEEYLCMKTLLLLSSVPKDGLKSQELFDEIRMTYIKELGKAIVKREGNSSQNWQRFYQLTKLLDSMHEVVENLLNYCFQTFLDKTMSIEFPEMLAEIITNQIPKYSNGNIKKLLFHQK
# Procedure: CV1 cells were maintained in MEM supplemented with 10% FBS. Transcriptional assays were performed by seeding 12 mL of cells at a density of 250,000 cells/mL into a T-75 cell culture flask in MEM supplemented with 5% charcoal-stripped serum and allowed to attach overnight. Cells were transiently transfected using FuGENE 6 (Roche Applied Science). […] Transfected cells were incubated overnight then split into four 96-well tissue culture plates and incubated for 4 hr followed by compound addition. […] The final agonist concentration used in the antagonist assays was 10 nM.
# [2] = target: T2, MR (Homo sapiens, UniProt P08235); assay: MR transcriptional reporter assay, antagonist mode (HEPG2 cells); type: cell-based; conditions: 1 nM aldosterone
# T2 construct: expressed in transfected cells; host or cells: HEPG2
# T2 sequence (P08235 1-984): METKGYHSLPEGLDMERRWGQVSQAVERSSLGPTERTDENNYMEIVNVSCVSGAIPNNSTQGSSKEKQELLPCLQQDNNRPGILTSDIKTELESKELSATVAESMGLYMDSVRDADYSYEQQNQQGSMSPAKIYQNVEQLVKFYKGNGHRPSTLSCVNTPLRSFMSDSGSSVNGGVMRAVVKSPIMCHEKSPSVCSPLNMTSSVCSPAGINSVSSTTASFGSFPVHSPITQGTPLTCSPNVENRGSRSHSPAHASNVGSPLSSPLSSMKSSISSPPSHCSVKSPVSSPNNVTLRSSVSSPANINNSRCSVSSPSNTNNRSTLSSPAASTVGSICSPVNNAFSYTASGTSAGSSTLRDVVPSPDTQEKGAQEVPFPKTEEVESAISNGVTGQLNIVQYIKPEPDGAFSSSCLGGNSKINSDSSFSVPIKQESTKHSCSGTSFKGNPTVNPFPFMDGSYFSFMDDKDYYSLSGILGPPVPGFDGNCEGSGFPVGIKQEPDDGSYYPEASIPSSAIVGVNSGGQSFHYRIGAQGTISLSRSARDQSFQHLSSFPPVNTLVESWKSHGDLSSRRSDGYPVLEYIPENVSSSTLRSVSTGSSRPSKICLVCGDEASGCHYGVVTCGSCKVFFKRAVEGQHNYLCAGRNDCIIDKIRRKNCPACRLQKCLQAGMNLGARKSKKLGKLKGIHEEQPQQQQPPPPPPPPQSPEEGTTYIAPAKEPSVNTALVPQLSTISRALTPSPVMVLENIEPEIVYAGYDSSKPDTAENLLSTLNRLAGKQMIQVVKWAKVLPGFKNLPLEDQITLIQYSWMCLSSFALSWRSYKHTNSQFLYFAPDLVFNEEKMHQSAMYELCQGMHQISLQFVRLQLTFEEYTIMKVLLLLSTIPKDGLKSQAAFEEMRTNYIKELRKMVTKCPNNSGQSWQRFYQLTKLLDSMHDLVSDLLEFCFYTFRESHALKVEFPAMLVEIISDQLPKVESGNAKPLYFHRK
# [3] = target: T3, ERα (Homo sapiens, UniProt P03372); assay: MCF7 3X ERE-LUC transcriptional reporter assay (ERα antagonist); conditions: 0.1 nM 17β-estradiol, 24 hr
# T3 sequence (P03372 whole entry): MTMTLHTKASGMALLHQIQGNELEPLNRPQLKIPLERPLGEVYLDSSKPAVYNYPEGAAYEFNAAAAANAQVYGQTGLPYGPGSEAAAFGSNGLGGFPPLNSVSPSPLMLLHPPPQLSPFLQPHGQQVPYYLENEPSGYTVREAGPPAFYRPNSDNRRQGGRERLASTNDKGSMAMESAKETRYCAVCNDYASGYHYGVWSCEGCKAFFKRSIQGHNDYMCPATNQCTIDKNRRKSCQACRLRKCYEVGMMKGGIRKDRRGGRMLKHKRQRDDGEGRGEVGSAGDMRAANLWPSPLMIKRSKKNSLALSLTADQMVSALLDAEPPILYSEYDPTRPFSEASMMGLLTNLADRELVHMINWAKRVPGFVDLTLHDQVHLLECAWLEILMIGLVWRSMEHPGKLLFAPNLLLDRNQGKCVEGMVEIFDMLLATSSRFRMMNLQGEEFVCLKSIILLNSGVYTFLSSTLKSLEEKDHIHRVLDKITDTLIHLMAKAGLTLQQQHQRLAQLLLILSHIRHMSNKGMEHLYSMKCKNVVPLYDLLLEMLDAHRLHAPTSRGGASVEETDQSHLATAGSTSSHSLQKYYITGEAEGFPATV
# [4] = target: AR (Homo sapiens, UniProt P10275); assay: AR competitive radioligand binding assay (MDA-MB-453 cell lysate); conditions: 0.6 nM 3H-R1881
# Chain of AR (P10275 whole entry): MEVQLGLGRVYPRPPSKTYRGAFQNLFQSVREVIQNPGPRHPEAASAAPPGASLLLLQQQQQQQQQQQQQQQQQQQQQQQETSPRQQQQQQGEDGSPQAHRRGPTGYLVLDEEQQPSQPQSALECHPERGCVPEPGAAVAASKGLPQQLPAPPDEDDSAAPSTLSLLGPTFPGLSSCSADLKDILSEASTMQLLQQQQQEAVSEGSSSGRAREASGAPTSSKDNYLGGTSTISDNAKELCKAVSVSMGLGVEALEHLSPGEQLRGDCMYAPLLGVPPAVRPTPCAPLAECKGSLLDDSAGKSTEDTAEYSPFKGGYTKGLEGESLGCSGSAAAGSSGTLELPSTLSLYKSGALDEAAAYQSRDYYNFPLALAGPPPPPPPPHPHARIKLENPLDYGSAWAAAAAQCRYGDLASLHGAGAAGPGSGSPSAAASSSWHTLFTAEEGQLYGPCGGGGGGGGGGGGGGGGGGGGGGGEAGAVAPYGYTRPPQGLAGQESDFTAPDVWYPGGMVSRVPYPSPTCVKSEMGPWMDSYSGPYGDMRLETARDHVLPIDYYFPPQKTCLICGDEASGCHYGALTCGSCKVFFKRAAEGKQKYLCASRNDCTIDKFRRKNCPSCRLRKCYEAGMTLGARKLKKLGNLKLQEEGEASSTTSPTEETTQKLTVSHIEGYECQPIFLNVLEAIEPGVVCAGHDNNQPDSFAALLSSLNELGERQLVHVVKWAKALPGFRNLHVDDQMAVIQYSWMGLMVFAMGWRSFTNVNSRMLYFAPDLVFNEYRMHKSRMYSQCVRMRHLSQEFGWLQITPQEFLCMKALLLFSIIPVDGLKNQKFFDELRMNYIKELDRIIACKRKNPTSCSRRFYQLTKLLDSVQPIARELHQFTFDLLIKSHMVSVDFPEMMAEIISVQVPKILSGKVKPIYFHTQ
# Procedure: After reaching 90% confluence, cells were harvested, resuspended in TEGM (10 mM TrisHCl pH 7.2, 1 mM EDTA, 10% glycerol, 1 mM β-mercaptoethanol, 10 mM Sodium Molybdate), and frozen in liquid nitrogen in 10 mL aliquots containing 2 × 10^7 cells/mL. […] Reactions were incubated at 4°C overnight. Bound and unbound ligands were separated by ultrafiltration using a Unifilter-96 GF/C filter plate (Perkin Elmer). Bound ^3H-R1881 was eluted in 30 μL/well Microscint-20 and quantified using a scintillation counter (Top Count).
# [5] = target: T3, ERα; assay: MCF7 ERα In-Cell Western assay; conditions: MCF7, 4 hr
# [6] = tested on: ZR75-1 ER+ breast cancer tumors; assay: ZR-75-1 xenograft efficacy; type: in vivo, mice; conditions: GDC-0810 100 mg/kg/day p.o., 28 days, 0.72 mg E2 pellets
# [7] = tested on: ER; design: method as in Dickler et al., 2015; conditions: postmenopausal women with ER+ locally advanced or metastatic breast cancer, patients with FES-PET scans; ref Dickler et al., 2015; cited from earlier work
# [8] = tested on: MDA-MB-231, an ER negative human breast cancer tumor model; assay: MDA-MB-231 xenograft efficacy; type: in vivo, mice; conditions: GDC-0810 100 mg/kg/day p.o., 29 days
compound,measurement,setting,value
"CC/C(=C(\c1ccc(O)cc1)c1ccc(OCCN(C)C)cc1)c1ccccc1 [4-OH Tam, 4-hydroxytamoxifen]",IC50,[1],1.47 ± 1.18 µM
same,IC50,[2],6.42 ± 0.75 µM
C[C@]12CC[C@@H]3c4ccc(O)cc4C[C@@H](CCCCCCCCC[S+]([O-])CCCC(F)(F)C(F)(F)F)[C@H]3[C@@H]1CC[C@@H]2O (some centres unmarked) [Fulvestrant],Transcription 3X ERE-LUC Emax,[3],4.1 ± 2.6 % E2
same,IC50,[4],> 4 µM
same,ERα degradation In-Cell Western Emax,[5],6.4 ± 2.0 % Veh.
CC/C(=C(/c1ccc(/C=C/C(=O)O)cc1)c1ccc2[nH]ncc2c1)c1ccc(F)cc1Cl [GDC-0810],"Tumor growth response, ZR75-1 xenograft",[6],displayed anti-tumor activity
same,patients with complete/near complete (>90%) suppression of FES uptake,[7],90 % of patients
same,"Tumor growth response, MDA-MB-231 xenograft",[8],did not exhibit any anti-tumor activity
